≈ marks a conversion by molar mass, not a printed value. Counter-ions that a name gives are not always drawn.
How the values were obtained:
[1] = system: platelet agglutination (PRP, plasma rich in platelet); test: Platelet-agglutination inhibition test (rat PRP, adenosine phosphate, aggregometer); assay type: cell-based, Wistar-strain male rats; conditions: 1 min, concentration in terms of prostaglandin I2 reducing maximum agglutination rate by 50% relative to control, 1 min at 37° C., 1 mM adenosine phosphate, read-out: ED50 (the source's name)
Description: (§1) Wistar-strain male rats weighing 150 to 200 g were used in the experiment.
(§2) Blood samples were collected from the heart of the animal without anasthesia by the use of a syringe, in which 3.3% sodium citrate solution had been placed beforehand, in such a way that the volume ratio of the sodium citrate solution to the collected blood was 1:9. The collected blood was then quickly centrifuged at 170 G at room temperature to obtain plasma rich in platelet (hereinafter referred to as PRP).
Then, the compounds 1, 2 and 3 as well as sodium salt of prostaglandin I2 were respectively dissolved in ethanol to a concentration of 1 mg/ml in terms of prostaglandin I2, and thereafter diluted with physiological saline to form solutions of various concentrations.
The platelet-agglutination inhibition test was carried out in the following manner.
The above-mentioned PRP (500 μl) and the above solution 50 μl) containing the drug tested were incubated at 37° C. for one minute in an aggregometer cuvette; then 1 mM adenosine phosphate solution (50 μl) was added to the mixture to obtain an agglutination curve on the instrument and determine the maximum agglutination rate. A mixture of 500 μl of PRP, 50 μl of physiological saline and 50 μl of 1 mM adenosine phosphate solution was used as the control to obtain similarly an agglutination curve.
The concentration (ED50) in terms of prostaglandin I2 of each of the drugs to be tested, at which the solution containing the drug reduces the percentage of the maximum agglutination rate by 50% relative to that of the control taken as 100, was calculated.

[2] = system: platelet agglutination (PRP, plasma rich in platelet); test: Change of agglutination-inhibition rate with incubation time, fat emulsions (evaluated indirectly via c-AMP content in the platelets); assay type: cell-based, Wistar-strain male rats; design: concentration or dose not given beside the values; conditions: incubation 1 minute; compounds in fat emulsion, sodium salt of prostaglandin I2 in aq. solution
[3] = system: platelet agglutination (PRP, plasma rich in platelet); test: as above; assay type: cell-based, Wistar-strain male rats; design: concentration or dose not given beside the values; conditions: compounds in fat emulsion, sodium salt of prostaglandin I2 in aq. solution; for agglutination-inhibition rate, incubation time 5 minutes: incubation 5 minutes; for agglutination-inhibition rate, incubation time 20 minutes: incubation 20 minutes; for agglutination-inhibition rate, incubation time 60 minutes: incubation 60 minutes
Description: as §1, §2
Separately, by using fat emulsions prepared as in Example 3 and extending the incubation time to 5, 20 and 60 minutes, the changes in agglutination-inhibition rate were observed. Each fat emulsion was prepared to contain 1 mg in terms of prostaglandin I2 of a test compound. It was incubated with PRP for a predetermined time; the platelets were then washed; and the content of c-AMP in the platelets was determined, thus to evaluate indirectly the inhibitory action on platelet agglutination. A physiological saline solution of sodium salt of prostaglandin I2 was used as the control.

platelet agglutination = conditions: cited from earlier work
artery = conditions: cited from earlier work
[4] = cited from earlier work
[5] = system: human platelet agglutination; conditions: cited from earlier work
other smooth muscles = conditions: cited from earlier work

| Compound | IC50 [1] [µg/mL] | agglutination-inhibition rate, incubation time 1 minute [2] [%] | agglutination-inhibition rate, incubation time 5 minutes [3] [%] | agglutination-inhibition rate, incubation time 20 minutes [3] [%] | agglutination-inhibition rate, incubation time 60 minutes [3] [%] | platelet-agglutination action (platelet agglutination) | artery-relaxative or artery-contractive action (artery) | water solubility [4] | suppression of human platelet agglutination action induced by arachidonic acid [5] | relaxation of other smooth muscles (other smooth muscles) |
| --- | --- | --- | --- | --- | --- | --- | --- | --- | --- | --- |
| CCCCCC(O)C=CC1C(O)CC2OC(=CCCCC(=O)OCOC(=O)C(C)(C)C)CC21 (centres unmarked) [Compound 2, Pivaloyloxymethyl prostaglandin I2 ester] | 0.5 (≈ 1.07 µM) | 93 | 78 | 51 | 27 |  |  |  |  |  |
| CCCCCC(O)C=CC1OC2CC(O2)C1CC=CCCCC(=O)O (centres unmarked) [thromboxan A2] |  |  |  |  |  | platelet-agglutination action | artery-contractive action |  |  |  |
| CCCCCC(O)C=CC1C(O)CC2OC(=CCCCC(=O)OCC(=O)OCCCC)CC21 (centres unmarked) [Compound 1, butoxycarbonylmethyl prostaglandin I2 ester] | 4.6 (≈ 9.86 µM) | 13 | 11 | 7 | 3 |  |  |  |  |  |
| CCCCCC(=O)OC(C)OC(=O)CCCC=C1CC2C(CC(O)C2C=CC(O)CCCCC)O1 (centres unmarked) [Compound 3, 1-Hexanoyloxyethyl prostaglandin I2 ester] | 0.7 (≈ 1.42 µM) | 78 | 71 | 65 | 48 |  |  |  |  |  |
| CCCCC[C@H](O)/C=C/[C@@H]1[C@H]2C/C(=C/CCCC(=O)O)O[C@H]2C[C@H]1O [Sodium salt of prostaglandin I2, reference compound] | 0.4 | 100 | 17 | 0 | 0 |  |  |  |  |  |
| CCCCC[C@H](O)/C=C/[C@@H]1[C@H]2C/C(=C/CCCC(=O)O)O[C@H]2C[C@H]1O [prostaglandin I2, (5Z,13E)-(9α, 11α, 15S)-6,9-epoxy-11,15-dihydroxyprosta-5,13-dienoic acid] |  |  |  |  |  |  | powerful artery-relaxative action | fairly water-soluble | strongly suppresses | does not relax other smooth muscles |

From patent US4613614A, “Prostaglandin I2 ester and fat emulsion containing the same” (The Green Cross Corporation, priority 1983, dated 1986)
